One assay deals with HCC1937 cells. The assay is described as follows: Cellular PARylation assay. The assay is classed as cell-based. The note with it: Homo sapiens; HCC1937 cells, compound 30 min then 1 mM H2O2 10 min; read-out: cellular PARylation EC50. An outline of the steps:
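HCC1937 cells pretreated 30 min with compound, then stimulated with 1 mM H2O2 for 10 min. Fixed cells immunostained with anti-PAR 10H and FITC secondary, with DAPI counterstain; fluorescence read on a plate reader.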

For a further assay, the target named is T1, PARP-1 (Homo sapiens, UniProt P09874).
T1 construct: purchased
T1 sequence (P09874 whole entry): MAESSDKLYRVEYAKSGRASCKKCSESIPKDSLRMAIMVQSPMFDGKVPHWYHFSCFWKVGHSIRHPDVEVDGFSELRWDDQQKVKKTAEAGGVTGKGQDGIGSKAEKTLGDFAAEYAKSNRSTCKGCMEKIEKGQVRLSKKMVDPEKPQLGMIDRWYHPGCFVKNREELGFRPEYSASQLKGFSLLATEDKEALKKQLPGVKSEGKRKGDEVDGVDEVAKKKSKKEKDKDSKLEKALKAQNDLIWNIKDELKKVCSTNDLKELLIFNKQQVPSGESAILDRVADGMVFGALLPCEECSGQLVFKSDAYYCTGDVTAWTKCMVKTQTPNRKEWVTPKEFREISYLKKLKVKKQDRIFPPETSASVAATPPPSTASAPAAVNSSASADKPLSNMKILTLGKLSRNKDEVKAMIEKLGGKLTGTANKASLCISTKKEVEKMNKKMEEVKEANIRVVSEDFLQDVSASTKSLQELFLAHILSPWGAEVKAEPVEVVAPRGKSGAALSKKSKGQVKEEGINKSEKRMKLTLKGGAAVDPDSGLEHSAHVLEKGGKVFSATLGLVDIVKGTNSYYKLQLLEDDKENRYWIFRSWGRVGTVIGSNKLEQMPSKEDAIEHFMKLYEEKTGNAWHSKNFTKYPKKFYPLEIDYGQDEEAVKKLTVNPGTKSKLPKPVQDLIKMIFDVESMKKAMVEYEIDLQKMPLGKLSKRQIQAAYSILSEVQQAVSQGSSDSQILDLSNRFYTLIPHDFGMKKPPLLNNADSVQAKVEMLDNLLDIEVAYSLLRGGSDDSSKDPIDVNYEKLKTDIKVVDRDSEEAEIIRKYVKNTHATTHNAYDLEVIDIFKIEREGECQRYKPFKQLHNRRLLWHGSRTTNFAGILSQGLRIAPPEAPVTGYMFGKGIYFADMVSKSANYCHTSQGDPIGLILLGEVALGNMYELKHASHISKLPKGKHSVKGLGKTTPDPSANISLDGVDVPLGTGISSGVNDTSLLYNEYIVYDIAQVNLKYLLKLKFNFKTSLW
Nature of the assay: PARP enzymatic assay (HT Universal Colorimetric PARP1 Assay Kit). In kind it is biochemical. The note with it: read-out: PARP-1 enzymatic inhibition IC50. An outline of the steps: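 Inhibition of PARP1 was measured with the HT Universal Colorimetric PARP1 Assay Kit. A 96-well plate was coated with histone proteins overnight at 4° C, washed with PBST, and blocked for 30 min at room temperature. Test compound and 20 μl of PARP1 (1 nM) were then added and incubated. Streptavidin-HRP (1:50) and chemiluminescent HRP substrate were added, and the signal was read on an Envision microplate reader.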

What is called EC50 is the concentration needed to bring the measured effect to its halfway point. For orientation: IC50 means the point on the concentration scale where inhibition reaches its midpoint.

Take `CN(C)C(=O)C1CC1CN1CCC(C)(c2cnn3c2[nH]c2cc(F)cc(C(N)=O)c23)CC1` (centres unmarked) [Example 81]: the EC50 with HCC1937 cells is 1 to 100 nM. Moreover, the IC50 at PARP-1 is 1 to 100 nM.
Consider `CC(C)CN1CCC(C)(c2cnn3c2[nH]c2cc(F)cc(C(N)=O)c23)CC1` [Example 82, 6-fluoro-3-(1-isobutyl-4-methylpiperidin-4-yl)-4H-benzo[4,5]imidazo[1,2-b]pyrazole-8-carboxamide], for which, in the assay on HCC1937 cells, the EC50 was in the range of 1 to 100 nM. For the same compound, the IC50 at PARP-1 fell in the range of 1 to 100 nM.
Consider `Cc1ncsc1CN1CCC(C)(c2cnn3c2[nH]c2cc(F)cc(C(N)=O)c23)CC1` [Example 83, 6-fluoro-3-(4-methyl-1-((4-methylthiazol-5-yl)methyl)piperidin-4-yl)-4H-benzo[4,5]imidazo[1,2-b]pyrazole-8-carboxamide], for which the 50% effective concentration (EC50) with HCC1937 cells lay within 1 to 100 nM. Also, the half-inhibitory concentration (IC50) at PARP-1 is 1 to 100 nM.
Consider `Cn1ccnc1CN1CCC(C)(c2cnn3c2[nH]c2cc(F)cc(C(N)=O)c23)CC1` [Example 84, 6-fluoro-3-(4-methyl-1-((1-methyl-1H-imidazol-2-yl)methyl)piperidin-4-yl)-4H-benzo[4,5]imidazo[1,2-b]pyrazole-8-carboxamide], for which the EC50 in the assay with HCC1937 cells lay in the range of 1 to 100 nM. On PARP-1, the IC50 lay in the range of 1 to 100 nM.
On to `Cc1ncc(CN2CCC(C)(c3cnn4c3[nH]c3cc(F)cc(C(N)=O)c34)CC2)n1C` [Example 85, 3-(1-((1,2-dimethyl-1H-imidazol-5-yl)methyl)-4-methylpiperidin-4-yl)-6-fluoro-4H-benzo[4,5]imidazo[1,2-b]pyrazole-8-carboxamide], for which the EC50 in the assay with HCC1937 cells lay in the range of 1 to 100 nM. Also, on PARP-1, the IC50 was in the range of 1 to 100 nM.
Take `CCN1CCC(N2CCC(C)(c3cnn4c3[nH]c3cc(F)cc(C(N)=O)c34)CC2)CC1` [Example 86, 3-(1′-ethyl-4-methyl-[1,4′-bipiperidin]-4-yl)-6-fluoro-4H-benzo[4,5]imidazo[1,2-b]pyrazole-8-carboxamide]: in the assay with HCC1937 cells, the EC50 was in the range of 1 to 100 nM. Further, the IC50 at PARP-1 fell in the range of 1 to 100 nM.
Take `CC1(c2cnn3c2[nH]c2cc(F)cc(C(N)=O)c23)CCN(Cc2ccc(=O)[nH]n2)CC1` [Example 87, 6-fluoro-3-(4-methyl-1-((6-oxo-1,6-dihydropyridazin-3-yl)methyl)piperidin-4-yl)-4H-benzo[4,5]imidazo[1,2-b]pyrazole-8-carboxamide]: the EC50 in the assay with HCC1937 cells was in the range of 101 to 1000 nM. Besides, the IC50 at PARP-1 is 1 to 100 nM.
As for `CC1(c2cnn3c2[nH]c2cc(F)cc(C(N)=O)c23)CCN(CCC#N)CC1` [Example 88, 3-(1-(2-cyanoethyl)-4-methylpiperidin-4-yl)-6-fluoro-4H-benzo[4,5]imidazo[1,2-b]pyrazole-8-carboxamide], in the assay with HCC1937 cells, the EC50 lay in the range of 1 to 100 nM. Besides, the IC50 at PARP-1 was in the range of 1 to 100 nM.
On to `CCN1CCC(C)(c2cnn3c2[nH]c2cc(Cl)cc(C(N)=O)c23)CC1` [Example 89, 6-chloro-3-(1-ethyl-4-methylpiperidin-4-yl)-4H-benzo[4,5]imidazo[1,2-b]pyrazole-8-carboxamide], for which, in the assay on HCC1937 cells, the EC50 was in the range of 101 to 1000 nM. In addition, the IC50 at PARP-1 is 1 to 100 nM.
For `CCN1CCC(C)(c2cnn3c2[nH]c2cc(F)cc(C(N)=O)c23)C1` (centres unmarked) [Example 90, 3-(1-ethyl-3-methylpyrrolidin-3-yl)-6-fluoro-4H-benzo[4,5]imidazo[1,2-b]pyrazole-8-carboxamide], in that order: 1 to 100 nM and 1 to 100 nM.
For `CN1CCC(C)(c2cnn3c2[nH]c2cc(F)cc(C(N)=O)c23)C1` (centres unmarked) [Example 91, 3-(1,3-dimethylpyrrolidin-3-yl)-6-fluoro-4H-benzo[4,5]imidazo[1,2-b]pyrazole-8-carboxamide], in the assay on HCC1937 cells, the EC50 was in the range of 1 to 100 nM. Besides, on PARP-1, the IC50 lay in the range of 1 to 100 nM.
Turning to `CC(C)N1CCC(C)(c2cnn3c2[nH]c2cc(F)cc(C(N)=O)c23)C1` (centres unmarked) [Example 92, 6-fluoro-3-(1-isopropyl-3-methylpyrrolidin-3-yl)-4H-benzo[4,5]imidazo[1,2-b]pyrazole-8-carboxamide], the concentration giving a half-maximal response (EC50) in the assay on HCC1937 cells lay in the range of 1 to 100 nM. Further, on PARP-1, the IC50 fell in the range of 1 to 100 nM.
As to `CC1(c2cnn3c2[nH]c2cc(F)cc(C(N)=O)c23)CCN(CC2CC2)C1` (centres unmarked) [Example 93, 3-(1-(cyclopropylmethyl)-3-methylpyrrolidin-3-yl)-6-fluoro-4H-benzo[4,5]imidazo[1,2-b]pyrazole-8-carboxamide], in the assay with HCC1937 cells, the EC50 was 1 to 100 nM. Also, the IC50 at PARP-1 was 1 to 100 nM.
Consider `CC1(c2cnn3c2[nH]c2cc(F)cc(C(N)=O)c23)CCN(C2COC2)C1` (centres unmarked) [Example 94, 6-fluoro-3-(3-methyl-1-(oxetan-3-yl)pyrrolidin-3-yl)-4H-benzo[4,5]imidazo[1,2-b]pyrazole-8-carboxamide], for which, in the assay on HCC1937 cells, the EC50 is 101 to 1000 nM. Further, the IC50 at PARP-1 was in the range of 1 to 100 nM.
With `CC1(c2cnn3c2[nH]c2cc(F)cc(C(N)=O)c23)CCN(CCF)C1` (centres unmarked) [Example 95, 6-fluoro-3-(1-(2-fluoroethyl)-3-methylpyrrolidin-3-yl)-4H-benzo[4,5]imidazo[1,2-b]pyrazole-8-carboxamide], in the assay with HCC1937 cells, the EC50 lay within 1 to 100 nM. The concentration for half-maximal inhibition (IC50) at PARP-1 was 1 to 100 nM.
Consider `CC1(c2cnn3c2[nH]c2cc(F)cc(C(N)=O)c23)CCN(CC2CC2(F)F)C1` (centres unmarked) [Example 96, 3-(1-((2,2-difluorocyclopropyl)methyl)-3-methylpyrrolidin-3-yl)-6-fluoro-4H-benzo[4,5]imidazo[1,2-b]pyrazole-8-carboxamide], for which the EC50 in the assay on HCC1937 cells lay within 1 to 100 nM. For the same compound, at PARP-1, the IC50 is 1 to 100 nM.
As to `CC1(c2cnn3c2[nH]c2cc(F)cc(C(N)=O)c23)CCN(CC(F)(F)F)C1` (centres unmarked) [Example 97, 6-fluoro-3-(3-methyl-1-(2,2,2-trifluoroethyl)pyrrolidin-3-yl)-4H-benzo[4,5]imidazo[1,2-b]pyrazole-8-carboxamide], the EC50 in the assay on HCC1937 cells lay within 101 to 1000 nM. Moreover, the IC50 at PARP-1 is 1 to 100 nM.
On to `CC1(c2cnn3c2[nH]c2cc(F)cc(C(N)=O)c23)CCN(CCS(C)(=O)=O)C1` (centres unmarked) [Example 98, 6-fluoro-3-(3-methyl-1-(2-(methylsulfonyl)ethyl)pyrrolidin-3-yl)-4H-benzo[4,5]imidazo[1,2-b]pyrazole-8-carboxamide], for which the EC50 with HCC1937 cells fell in the range of 101 to 1000 nM. Besides, on PARP-1, the IC50 lay in the range of 1 to 100 nM.
Turning to `CC1(c2cnn3c2[nH]c2cc(F)cc(C(N)=O)c23)CCN(CCC(F)(F)F)C1` (centres unmarked) [Example 99, 6-fluoro-3-(3-methyl-1-(3,3,3-trifluoropropyl)pyrrolidin-3-yl)-4H-benzo[4,5]imidazo[1,2-b]pyrazole-8-carboxamide], in the assay on HCC1937 cells, the EC50 lay within 1 to 100 nM. Besides, the IC50 on PARP-1 fell in the range of 1 to 100 nM.
On to `CC1(c2cnn3c2[nH]c2cc(F)cc(C(N)=O)c23)CCN(CC2(N)CC2)C1` (centres unmarked) [Example 100, 3-(1-((1-aminocyclopropyl)methyl)-3-methylpyrrolidin-3-yl)-6-fluoro-4H-benzo[4,5]imidazo[1,2-b]pyrazole-8-carboxamide], for which the EC50 with HCC1937 cells is 1 to 100 nM. The IC50 at PARP-1 fell in the range of 1 to 100 nM.
Regarding `CC1(c2cnn3c2[nH]c2cc(F)cc(C(N)=O)c23)CCN(CC2(C#N)CCC2)C1` (centres unmarked) [Example 101, 3-(1-((1-cyanocyclobutyl)methyl)-3-methylpyrrolidin-3-yl)-6-fluoro-4H-benzo[4,5]imidazo[1,2-b]pyrazole-8-carboxamide], the half-maximal effective concentration (EC50) in the assay on HCC1937 cells was 101 to 1000 nM. Moreover, the half-inhibitory concentration (IC50) on PARP-1 was 1 to 100 nM.
With `CC1(c2cnn3c2[nH]c2cc(F)cc(C(N)=O)c23)CCN(CC2(C#N)CC2)C1` (centres unmarked) [Example 102, 3-(1-((1-cyanocyclopropyl)methyl)-3-methylpyrrolidin-3-yl)-6-fluoro-4H-benzo[4,5]imidazo[1,2-b]pyrazole-8-carboxamide], the EC50 in the assay with HCC1937 cells lay in the range of 101 to 1000 nM. Also, the IC50 on PARP-1 fell in the range of 1 to 100 nM.

These data come from patent US9856262B2, “Analogues of 4H-pyrazolo[1,5-a] benzimidazole compound as PARP inhibitors” (HUBEI BIO-PHARMACEUTICAL INDUSTRIAL TECHNOLOGICAL INSTITUTE …, priority 2014, dated 2018).
